Molecules are shown by their SMILES.

Series [1] in a line: Conversion of isomer F1 (12b) to F2 (12a) in chloroform, followed by 13C-NMR. It counts as physicochemical. Conditions: 14 days at room temperature. An excerpt:
FIG. 7A illustrates the aliphatic region of the ^13C-NMR spectrum of the F1 isomer (12b) in CDCl3 (bottom) and the aliphatic region of the ^13C-NMR spectrum of the F2 isomer (12a) in CDCl3 (top). FIG. 7B illustrates the aliphatic region of the ^13C-NMR spectra of the F1 isomer (12b) in CDCl3 at 0 days, 2 days, 6 days, 9 days and 14 days, showing that the F1 isomer (12b) slowly converts to the F2 isomer (12a).
After 14 days at room temperature, the conversion 12b (F1) to 12a (F2) was approximately 50% complete.

Series [2] is described as follows: Optimisation of Cu-64 radiolabeling of 13a and 13b to >95% radiochemical yield. Conditions: depends on CB-TE2A BFC concentration. An excerpt:
As used herein, the terms “degree of complexation” and “percent complexation” are used interchangeably and are defined to mean the percentage of the ion that is successfully complexed with the bifunctional chelate. Here percent complexation is expressed as radiochemical yield, which is the yield of radiolabeled complex expressed as a fraction of the radioactivity originally present. The value of radiochemical yield obtained when making the ion complexes of the present reaction can be greater than 90% or greater than 95%, as measured by reverse phase chromatography (HPLC).
The conditions required to radiolabel 13a and 13b with Cu-64 in >95% radiochemical yield were optimized for pH, temperature and reaction time (Table 1). The exact same radioisotope lot, buffer solutions, and conditions were used for the reaction and the analysis of both 13a and 13b.
Cu-64 radiolabeled 13a and 13b are distinct species with different retention times by HPLC. The analysis was conducted with a Phenomenex hydrosynergy RPC18 column (4.6×150 mm) using a gradient of 98% trifluoracetic acid in water (0.01% v/v) 2% acetonitrile to 50% trifluoracetic acid in water (0.01% v/v) 50% acetonitrile over 30 min at 1 mL/min.

Consider `CCOC(=O)CN1CCCN2CCN(CCCN(C(CCc3ccc([N+](=O)[O-])cc3)C(=O)OC)CC2)CC1` (stereo not drawn) [12b, methyl 2-(11-(2-ethoxy-2-oxoethyl)-1,4,8,11-tetraazabicyclo[6.6.2]hexadecan-4-yl)-4-(4-nitrophenyl)butanoate], for which the “Conversion 12b (F1) to 12a (F2)” value in series [1] was “approximately 50%”.
For the compound `O=C(O)CN1CCCN2CCN(CCCN(C(CCc3ccc([N+](=O)[O-])cc3)C(=O)O)CC2)CC1` (stereo not drawn) [13a], the Reaction time in series [2] is on record as 10-30 minutes depending on.
Same read-out and setting: in the case of `O=C(O)CN1CCCN2CCN(CCCN(C(CCc3ccc([N+](=O)[O-])cc3)C(=O)O)CC2)CC1` (stereo not drawn) [13b] it was 60 min.
